Laboratory results: US20200377518A1, “METHOD OF PREVENTING AND TREATING THROMBOSIS” (Rigel Pharmaceuticals, Inc., priority 2019, published 2020)
pEC50: −log10 of the molar value.

How the values were obtained:
[1] = target: IgE- and IgG-mediated activation of Fc receptor signaling; conditions: read-out: EC50 for degranulation; cited from earlier work
[2] = test system: monocytes/macrophages, neutrophils, B lymphocytes; conditions: cited from earlier work
[3] = test system: ITP patients; test: Fostamatinib in immune thrombocytic purpura (ITP) patients; format: in vivo, human
[4] = test system: Transgenic HIT mice homozygous for both FcγRIIA and human PF4 and null for mouse PF4; test: Inhibition of thrombosis in vivo, transgenic HIT mice, lung thrombi; conditions: chow containing 0.5, 1 and 2 g/kg of R788 for 3 days, KKO or HIT-IgG, then heparin, lungs 3 hours later
Description: Transgenic HIT mice homozygous for both FcγRIIA and human PF4 and null for mouse PF4 are used to evaluate the effects of fostamatinib on immune complexes (IC)-induced thrombocytopenia and thrombosis. 6-12 weeks old transgenic male mice are fed the control chow or chow containing 0.5, 1 and 2 g/kg of R788 for 3 days prior to the injection of either the monoclonal HIT-like antibody KKO or IgG from HIT patients (HIT-IgG). For HIT-induced thrombocytopenia experiments, all mice received heparin subcutaneously at 1600 U/kg body weight once daily for 6 days, starting with first day after antibody injection. Retro-orbital blood collection is performed daily after anesthetizing the animals starting a day before HIT antibody injection to monitor thrombocytopenia by counting platelets using standard equipment.
To assess fostamatinib effect on thrombosis, the mice are fed with drug or vehicle chow followed by injection of the HIT antibodies as described. Next day, each animal is retro-orbitally infused with 1×10^8 Alexa750-labeled platelets from untreated syngeneic donor mice prior to heparin injection. Animals are terminated 3 hours later, their lungs are excised, perfused with PBS, fixed with 7% paraformaldehyde and imaged using Odyssey Imaging System (LI-COR Bio). Thrombi are counted and scored by intensity using NIS Elements software (Nikon). […]

[5] = test system: C57Bl/6 WT male mice; test: Deep vein thrombosis, inferior vena cava (IVC) stenosis model; format: in vivo; conditions: fostamatinib chow for 3 days; 48 hours after the surgery
Protocol: Mice are fed fostamatinib or vehicle chow for 3 days, anaesthetized using isoflurane and then subjected to laparotomy. After tying off the side branches of the IVC, the IVC is stenosed with a ligature and a 30-gauge spacer to maintain a small degree of blood flow. Mice are allowed to recover, then culled 48 hours after the surgery and the IVC are examined for the presence and size of thrombus.
For deep vein thrombosis assay methods generally, see, Low dose Btk inhibitors selectively block platelet activation by CLEC-2. Phillip L. R. Nicolson et al. Haematologica 2020 Jan. 16. pii: haematol. 2019.218545. doi: 10.3324/haematol.2019.218545

[6] = test system: C57Bl6 mice; test: Arterial thrombosis, ferric chloride injury model of carotid artery; format: in vivo; conditions: fostamatinib chow for 3 days; FeCl3 on carotid artery
Protocol: To investigate effect on arterial thrombosis, a ferric chloride injury model in mice is employed. 8-week-old C57Bl6 mice are fed fostamatinib or vehicle chow for 3 days, anaesthetized using mixture of ketamine (100 mg/kg)/xylazine (10 mg/kg) via intraperitoneal injection and have their right jugular vein exposed. Next, rhodamine 6G solution is injected into the right jugular vein to label platelets, exposed carotid artery (CA) staged at the microscope and the thrombosis is induced by applying a piece of filter paper (1×2 mm) saturated with FeCl3 solution directly on the CA. Thrombus formation is identified by accumulation of the fluorescent platelets, which is observed in real-time recording video images under the microscope.
For arterial thrombosis assay methods generally, see, Wei Li, Thomas M. McIntyre, Roy L. Silverstein. Ferric chloride-induced murine carotid arterial injury: A model of redox pathology. Redox Biology 1 (2013) 50-55, and Wei Li, Marvin Nieman, Anirban Sen Gupta. Ferric Chloride-induced Murine Thrombosis Models. J. Vis. Exp. (115), e54479, doi:10.3791/54479 (2016).

SMILES	pEC50 [1]	BCR-mediated activation of B lymphocytes [2]	Syk-dependent FcR-mediated activation of monocytes/macrophages and neutrophils [2]	platelet levels [3]	risk of thrombosis [3]	heparin induced thrombosis (lung thrombi counted and scored by intensity) [4]	heparin induced thrombosis (lung thrombi counted and scored by intensity) ([4]; listed as R788)	presence and size of thrombus in IVC [5]	arterial thrombus formation (accumulation of fluorescent platelets) [6]
COc1cc(Nc2ncc(F)c(Nc3ccc4c(n3)NC(=O)C(C)(C)O4)n2)cc(OC)c1OC [R406, 6-((5-fluoro-2-((3,4,5-trimethoxyphenyl)amino)pyrimidin-4-yl)amino)-2,2-dimethyl-2H-pyrido[3,2-b][1,4]oxazin-3(4H)-one]	7.19 to 7.25	blocked	blocked	–	–	–	–	–	–
COc1cc(Nc2ncc(F)c(Nc3ccc4c(n3)N(COP(=O)(O)O)C(=O)C(C)(C)O4)n2)cc(OC)c1OC [fostamatinib, [6-({5-Fluoro-2-[(3,4,5-trimethoxyphenyl)amino]-4-pyrimidinyl}amino)-2,2-dimethyl-3-oxo-2,3-dihydro-4H-pyrido[3,2-b][1,4]oxazin-4-yl]methyl dihydrogen phosphate]	–	–	–	increases platelet levels	does not appear to increase risk of thrombosis	effectively reduces heparin induced thrombosis	inhibits thrombosis in vivo	Relative lack of thrombus	Lack of thrombus formation
